Measured values as given in patent US4980377A, “1-(aminophenyl)-2-aminopropanone derivatives” (Laboratoire L. Lafon, priority 1984, dated 1990).
“Also recorded” adds a separate entry of the source.

Experiments:
mice [1] = test: Overall behavior and reactivities in mice; type: in vivo, mouse; details: dose not stated
Experimental: (§1) In the neuropsychopharmacological study which follows, a solution of CRL 41 153 in distilled water (pH 1.5) was administered intraperitoneally in a volume of 20 ml/kg to male mice and 5 ml/kg to male rats.
(§2) Groups of three animals are observed before and then 0.25 hour, 0.50 hour, 1 hour, 2 hours, 3 hours and 24 hours after the administration of CRL 41 153.

rats [2] = test: Overall behavior and reactivities in rats; type: in vivo, rat; details: dose not stated
Experimental: as §1, §2

mice [3] = test: Interaction with apomorphine in mice; type: in vivo, mouse; details: i.p.
Experimental: Groups of 6 mice receive CRL 41 153 0.5 hour before the subcutaneous injection of 1 or 16 mg/kg of apomorphine.

rats [4] = test: Interaction with apomorphine in rats; type: in vivo, rat; details: i.p.
Experimental: CRL 41 153 is administered to groups of 6 rats 0.5 hour before the subcutaneous injection of 0.5 mg/kg of apomorphine.

rats [5] = test: Interaction with amphetamine; type: in vivo, rat; details: i.p.
Experimental: Amphetamine (2 mg/kg) is injected intraperitoneally into groups of 6 rats 30 minutes after the administration of CRL 41 153. […] 4 mg/kg and 16 mg/kg, CRL 41 153 potentiates the intensity and duration of the stereotypies induced by amphetamine.

mice [6] = test: Interaction with reserpine; type: in vivo, mouse; details: i.p.
Experimental: Four hours after the intraperitoneal injection of 2.5 mg/kg of reserpine, groups of 6 mice receive CRL 41 153.

mice [7] = test: Interaction with oxotremorine; type: in vivo, mouse; details: i.p.
Experimental: CRL 41 153 is administered to groups of 6 mice 0.5 hour before the intraperitoneal injection of 0.5 mg/kg of oxotremorine.

mice [8] = test: Spontaneous motility; type: in vivo, mouse; details: i.p.
Experimental: 0.5 hour after they have received CRL 41 153, the mice (6 per dose, 12 control animals) are placed in an actimeter, where their motility is recorded for 30 minutes.

mice [9] = test: Motility reduced by habituation to the enclosure; type: in vivo, mouse; details: i.p.
Experimental: After they have stayed In the actimeters for 18 hours, (he mice (6 per dose, 12 control animals) receive CRL 41 153. They are immediately returned to their respective enclosures and, half an hour later, their motility is recorded for 30 minutes.

mice [10] = test: Motility reduced by hypoxic aggression; type: in vivo, mouse; details: i.p.
Experimental: Half an hour after they have received CRL 41 153, the mice (10 per dose, 20 control animals) are subjected to acute hypobaric anoxia [pressure reduction of 600 mm Hg (i.e. about 8×10^4 Pa) in 90 seconds; release of vacuum in 45 seconds] and are then placed in an actimeter, where their motility is recorded for 10 minutes.

mice [11] = test: Interaction with barbital; type: in vivo, mouse; details: i.p., barbital 220 mg/kg
Experimental: Half an hour after the administration of CRL 41 153, groups of 10 mice receive an intraperitoneal injection of barbital (220 mg/kg).

mice [12] = test: Behavioral despair; type: in vivo, mouse; details: forcibly immersed mice, i.p.
Excerpt: Half an hour after they have received CRL 41 153, groups of 6 mice are placed in a beaker filled with water to a height of 6 cm. The total period of immobility between the 2nd and 6th minutes following immersion is noted.

dogs = test: Cardiovascular study in anesthetized dogs; type: in vivo, dog
Experimental: Two dogs (average weight: 14.1 kg), anesthetized with nembutal, receive CRL 41 194 by intraduodenal administration at successive doses of 0.1 mg/kg, 0.5 mg/kg, 1 mg/kg, 2.5 mg/kg, 5 mg/kg and 10 mg/kg (in solution in physiological solvent).
The blood pressure, the heart rate, the blood flow through the femoral artery, the blood flow through the vertebral artery and the rectal temperature are measured. The coloration of the skin and the coloration of the bile, collected by catheterization of the bile duct after ligature of the cystic duct, are observed.
4 dogs (average weight: 14 kg), anesthetized with nembutal, receive CRL 41 221 by intraduodenal administration at successive doses of 0.1 mg/kg, 0.5 mg/kg, 1 mg/kg, 2.5 mg/kg, 5 mg/kg and 10 mg/kg. The blood pressure, the heart rate, the blood flow through the femoral artery, the blood flow through the vertebral artery and the rectal temperature are measured. The coloration of the skin is observed.

[13] = system: gravid White New Zealand female rabbits; test: Teratogenicity in gravid White New Zealand rabbits; type: in vivo, rabbit; details: day 5 to day 18 of gestation; for Affected foetuses, %: normal limit 1.5%
Experimental: The protocol used comprised administering to gravid White New Zealand female rabbits (weighing each about 2900-3000 grams before gestation) a daily dose of 0 (batch of control animals), 5,10 or 50 mg/kg of each product to be tested by gastrogavage from day 5 to day 18 of gestation, then carrying out a cesarean operation on day 29 of gestation in order to enumerate:
(i) the total number of foestuses, and
(ii) the total number of foestuses presenting at least one malformation.
To appreciate the results of such a protocol it must be noted that natural malformations may occur. Statistically, the percentage of foetuses presenting at least one malformation in any control batch of gravid White New Zealand female rabbits is lower than or equal to 1.5% with respect to the total number of foetuses.
To be precise in this protocol a malformation comprises at least one of the following cases: articular limb blocade, anorous foetus, deviated tail, shorter tail, skull deformation, exemcephalia.

[14] = pH of solutions in distilled water; type: physicochemical
Experimental: The neuropsychopharmacological study was undertaken according to the procedures described above for CRL 41 153, CRL 41 213 being adminstered intraperitoneally, in solution in distilled water, in a volume of 20 ml/kg to male mice and a volume of 5 ml/kg to male rats, and the pH of the injected solution varying with the concentration of CRL 41 213 according to the data given in Table II below.

CNS = test: Neuropsychopharmacological profile as a whole; type: in vivo, mice and rats
Experimental: as §1

[15] = anesthetized dogs, intraduodenal
[16] = 12.8 g/liter in distilled water
[17] = ≤0.05 g/liter in distilled water

Row | SMILES | Overall behavior: observed effects (summary) (mice [1]) | Stereotype movements (summary) (mice [1]) | Overall behavior: observed effects (summary) (rats [2]) | Stereotype movements (summary) (rats [2]) | Effect on hypothermia induced by apomorphine (mice [3]) | Effect on stereotypies induced by apomorphine (rats [4]) | Effect on stereotypies induced by amphetamine (rats [5]) | Effect on hypothermia induced by reserpine (mice [6]) | Effect on hypothermic action of oxotremorine (mice [7]) | Spontaneous motor activity (mice [8]) | Motor activity of mice accustomed to their enclosure (mice [9]) | Motor recovery of mice after hypobaric hypoxia (mice [10]) | Duration of the sleep induced by barbital (mice [11]) | Period of immobility due to despair (mice [12]) | Vasodilator (conclusion) (dogs) | Affected foetuses, number ([13]; 5 mg/kg daily) | Total foetuses (live) ([13]; 5 mg/kg daily) | Affected foetuses, % ([13]; 5 mg/kg daily) [%] | Affected foetuses, number ([13]; 10 mg/kg daily) | Total foetuses (live) ([13]; 10 mg/kg daily) | also measured
1 | CC(C(=O)c1ccc(N)cc1)N(C)C (centres unmarked) [CRL 41 233] | excitation with hyperreactivity in mice and rats | the presence of stereotype movements in mice and rats | excitation with hyperreactivity in mice and rats | the presence of stereotype movements in mice and rats | antagonism of the hypothermia | potentiation of the stereotypies | potentiation of the stereotypies | antagonism of the hypothermia | antagonism of the hypothermia | an increase in the spontaneous motor activity of mice | resumption in the motor activity of mice accustomed to their enclosure | improvement in the motor recovery | a decrease in the duration of the sleep induced by barbital | a decrease in the period of immobility | vasodiating properties; also recorded: vasodilating properties | 1 | 89 | 1.12 | 0 | 85 | Rectal temperature (dogs; anesthetized dogs): large increase in the rectal temperature; Femoral flow (dogs; [15]): increases the femoral and vertebral flows as from a dose of 5 mg/kg; Heart rate (dogs; [15]): the tachycardiac effect appearing at 10 mg/kg; Vertebral flow (dogs; [15]): increases the femoral and vertebral flows as from a dose of 5 mg/kg; Affected foetuses, % ([13]; 10 mg/kg daily): 0%; pH ([14]; 0.1 g/liter in distilled water): 5.0; pH ([14]; 0.2 g/liter in distilled water): 4.5; pH ([14]; 0.4 g/liter in distilled water): 4.0; pH ([14]; 0.8 g/liter in distilled water): 3.5; pH ([14]; 1.6 g/liter in distilled water): 3.0; pH ([14]; 3.2 g/liter in distilled water): 2.5; pH ([14]; 6.4 g/liter in distilled water): 2.0; pH [14, 16]: 1.5; pH ([14]; 50 g/liter in distilled water): 1.0; pH [14, 17]: 5.5; Antidepressant effects (overall) (CNS; conclusion of the tests): antidepressant and stimulant properties; Stimulant effects (overall) (CNS; conclusion of the tests): antidepressant and stimulant properties
2 | CC(NC1CC1)C(=O)c1ccc(N)cc1 (centres unmarked) [CRL 41 246] | excitation with hyperreactivity in mice and rats | the presence of stereotype movements in mice and rats | excitation with hyperreactivity in mice and rats | the presence of stereotype movements in mice and rats | antagonism of the hypothermia | potentiation of the stereotypies | potentiation of the stereotypies | antagonism of the hypothermia | antagonism of the hypothermia | an increase in the spontaneous motor activity of mice | resumption in the motor activity of mice accustomed to their enclosure | improvement in the motor recovery | a reduction in the duration of the sleep induced by barbital | a reduction in the period of immobility | vasodiating properties | 1 | 89 | 1.12 | 0 | 94 | Effect on ptosis induced by reserpine (mice [6]): antagonism of the ptosis induced by reserpine; Effect on trembling induced by oxotremorine (mice [7]): antagonism of the trembling induced by oxotremorine; Affected foetuses, % ([13]; 10 mg/kg daily): 0%; pH ([14]; 0.1 g/liter in distilled water): 5.0; pH ([14]; 0.4 g/liter in distilled water): 4.5; pH ([14]; 0.8 g/liter in distilled water): 4.0; pH ([14]; 1.6 g/liter in distilled water): 3.5; pH ([14]; 6.4 g/liter in distilled water): 3.0; pH [14, 16]: 2.5; pH [14, 17]: 5.5; Antidepressant effects (overall) (CNS; conclusion of the tests): antidepressant effects; Stimulant effects (overall) (CNS; conclusion of the tests): stimulant effects; α-adrenergic stimulant effects (overall) (CNS; conclusion of the tests): α-adrenergic stimulant effects; Peripheral α-adrenergic signs (mydriasis, salivation, lacrimation, exophthalmos) (CNS; species and dose not stated): mydriasis; also recorded: salivation
